Test results from patent US20260060908A1, “USE OF FATTY ACIDS FOR MICROBIOME BENEFIT AND COMPOSITIONS COMPRISING THE SAME” (Conopco, Inc., d/b/a UNILEVER, priority 2022, published 2026).

How the values were obtained:
S. epidermidis = test: Growth of S. epidermidis in the presence of fatty acids (absorbance 620 nm growth curve); format: cell-based; conditions: Staphylococcus epidermidis, read-out: % increase over control; for activity at 0.001 %: unsaturated fatty acids at 0.001%, at the end of 24 to 30 hours, control = 100.0; for activity at 0.01 %: oleic acid, linoleic acid at 0.01% and their combination, control = 100
Experimental: Experiments were carried out on the growth of S. Epidermidis in the presence of various fatty acids using the following procedure.
(§1) The microorganism (S. epidermidis or S. hominis as the case may be) was streaked on TSA agar plate and incubated at 37° C. for 24 hr
(§2) The test samples (200 μl) were added to 96 well plate, followed by addition of above set cultures (20 μl).
(§3) The 96 well plate was placed in a Tecan reader and absorbance was read at 620 nm for a period of 24-30 h with a kinetic interval of 1 h
(§4) The values obtained is plotted as a growth curve with X-axis representing time in hour and Y-axis as absorbance read at 620 nm.

S. Hominis = test: Growth of S. hominis in the presence of fatty acids (absorbance 620 nm growth curve); format: cell-based; conditions: saturated fatty acids, concentration per example, at the end of 24 to 30 hours, control = 100.0
Experimental: • 5% of fatty acid stock is made in DMSO-0.5 g in 10 ml of DMSO • 2.68% of fatty acid (Total volume 5 ml) is made with 2.68 ml of 5% fatty acid stock+[…] of DMSO+0.45 ml of Tween 80. • Test samples: 50 μl 2.68% stock in 4.95 ml 1/10th diluted TSB (test samples)
as §1
Plate cultures of the microorganism was used to set up 0.3 OD620nm (corresponding to log 10^8 CFU/ml) in 1× PBS (pH7.4)
as §2, §3, §4
Experiments similar to those in Table-1 were carried out except that the microorganism used was S. Hominis.

Row | SMILES | activity at 0.001 % (S. epidermidis) [%] | % increase over control (S. Hominis) [%] | also measured
1 | CCCCC/C=C\C/C=C\CCCCCCCC(=O)O [Example 8, Linoleic acid] | 146 | – | –
2 | CCCCCCCCCCCC(=O)O [D, Lauric acid] | – | 63.0 | –
3 | CCCCCCCCCCCCCCCC(=O)O [Example F, palmitic acid] | – | 104.0 | –
4 | CCCCCCCC/C=C\CCCCCCCC(=O)O [Example 7, Oleic acid] | 132 | – | –
5 | CCCCCCCC/C=C\CCCCCCCC(=O)O [Example 11, Oleic acid] | – | – | activity at 0.01 % (S. epidermidis): 135%
6 | CCCCC/C=C\C/C=C\CCCCCCCC(=O)O [Example 12, Linoleic acid] | – | – | activity at 0.01 % (S. epidermidis): 132%
7 | CCCCCCCCCCCCCCCCCCCCCCCC(=O)O [Example 6, lignoceric acid] | – | 153.0 | –
8 | CCCCCCCCCCCCCCCCCCCC(=O)O [Example 5, arachidic acid] | – | 123.0 | –
9 | CCCCCC/C=C\CCCCCCCC(=O)O [Example G, Palmitoleic acid, reference compound] | 98.4 | – | –
10 | CCCCCCCCCCCCCC(=O)O [E, myristic acid] | – | 52.0 | –
